Results: patent US3979513A, “1'-Substituted-9,10-dihydroanthracene-9-spiro-4'-piperidine derivatives” (priority 1974, dated 1976)
Read-outs that look alike come from different tables or passages of the source.

Experiment: acute toxicity (LD50) in mice
Details: mouse, in vivo
Method: The corresponding intravenous LD50 is 40 mg./kg. Other LD50 values for compounds of the invention when dosed intravenously are as follows: […]

[1] = iv, dosed intravenously (table 1), read-out: LD50

| Structure (SMILES) | LD50 [1] [mg/kg] | LD50 (mice, intravenous, read-out: intravenous LD50) [mg/kg] | LD50 (mice, oral, read-out: oral LD50) [mg/kg] |
| --- | --- | --- | --- |
| CC(=O)Oc1cccc2c1Cc1ccccc1C21CCN(C)CC1 [Me 4-OAc H H H, 4-acetoxy-1'-methyl-9,10-dihydroanthracene-9-spiro-4'-piperidine] | 43 |  |  |
| CN1CCC2(CC1)c1ccccc1C(O)c1ccccc12 [10-hydroxy-1'-methyl-9,10-dihydroanthracene-9-spiro-4'-piperidine] |  | 40 | > 250 |
| Cc1ccc2c(c1)C1(CCN(C)CC1)c1ccccc1C2O (centres unmarked) [Me 2-Me H OH H, 1',2-dimethyl-10-hydroxy-9,10-dihydroanthracene-9-spiro-4'-piperidine] | 37 |  |  |
| CN1CCC2(CC1)c1ccccc1C(C)(O)c1c(O)cccc12 (centres unmarked) [Me 4-OH H OH Me, 4,10-dihydroxy-1',10-dimethyl-9,10-dihydroanthracene-9-spiro-4'-piperidine] | 25 |  |  |
